Measured values: patent publication US20250074891A1 (Anaxis Pharma Pty Ltd., priority 2021, published 2025)

Experiments:
[1] = tested on: U937 human histiocytic leukemia cell line; experiment: Cellular assay: inhibition of TSQ induced necroptosis (CellTitre-Glo); conditions: Homo sapiens, U-937; U937 cells, TSQ cocktail, 48 hours, Table 38; read-out: Inhibition of TSQ-induced necroptosis (IC50 cell-based assay)
Description: […] ASSAY: Screening compounds for inhibition of TSQ induced necroptosis, 384 well plate format.
Cell Line ID: U937 human histiocytic leukemia cell line.
Cell Concentration (cells/well): Final cell density is 20,000 cells per well.
Cell growth medium: HT-RPMI medium+7.4% Fetal Bovine Serum (FBS). Cells are cultured in Corning 150 cm^z tissue culture flasks with vented caps at 37° C./5% CO2.
Incubation: Plates were incubated at 37° C./5% CO2 in a humidified incubator for 48 hours following addition of compounds and death stimuli (TSQ cocktail).
Compound concentration: 36 μM starting concentration, 1:3 dilution, 10 point
DMSO final concentration (% v/v): 0.3%.
Compounds in TSQ cocktail (T: TNF; S: Smac mimetic; Q: Q-VD-OPh) and their final concentrations: • hTNF-Fc (100 ng/ml)—produced by standard procedures as shown in Bossen et al., J Biol Chem, 2006, 281(20), 13964-13971. • Compound A (500 nM)—Smac mimetic, Tetralogic and SYNthesis med chem • Q-VD-OPh (10 μM)—MP Biomedicals
The cellular assay was carried out according to the following steps: • 1. Each well was prepared by sequential addition of: • a. DMSO (control; columns 1-2 and 23-24) or compound in DMSO—addition was performed using acoustic transfer of nl volumes of stock compound to give final test concentrations of 36, 12, 4, 1.3, 0.44, 0.148, 0.049, 0.016, 0.005 and 0.002 μM. All wells were backfilled with DMSO to a final total volume in the well of 100 nl. • b. Following compound/DMSO addition in step (a), 40 μL of cell suspension (5×10^5 cells/mL) was added to provide a final cell concentration of 20,000 cells per well, and • c. Following cell addition in step (b), 10 μL of 5×TSQ cocktail (except to positive controls; […]) was added to each well. • 2. After 48 hours, plate was removed from the 37° C. incubator and equilibrated to room temperature for 45 minutes. • 3. 15 μL of room temperature CellTitre-Glo2™ (Promega™) was added to each well. • 4. Shook plates for 2 minutes (˜600 rpm) and incubated at room temperature for 15 minutes to allow signal to stabilise. • 5. Read luminescence readout on a plate reader.
Percent viability was calculated for each compound according to equation (2):
[formula] • wherein • RawData is the readout of any cell containing a compound of the invention • TA is the total activity provided by the luminescence readout from DMSO only wells (columns 2 and 24)=100% viability • NSA is the non-specific activity provided by DMSO+TSQ wells (columns 1 and 23)=0% viability
Curve fitting: 10-point titration curves are fitted with the 4-parameter logistic nonlinear regression model and the IC50 reported is the inflection point of the curve.
Analysis: Data was loaded into Dotmatics™ and visualised using the Tibco® Spotfire™ software. 10 points titration curves were fitted with the 4-parameter logistic nonlinear regression model and the IC50 reported reflect the inflection point of the curve for curve fitting.
Assay involving the TSQ cocktail (T: TNF; S: Smac mimetic; Q: Q-VD-OPh): TSQ treatment ensures that cells specifically undergo necroptotic cell death. TNF activates the TNF receptor, Smac mimetic directs the signal away from proinflammatory signaling and toward the RIP1/RIP3-mediated cell death pathways, and Q-VD-OPh ensures that the apoptotic response is blocked leaving only the programmed necrosis response. The compounds' activity (solution in DMSO) tested in this TSQ-induced assay was evaluated by determining the number of viable cells in culture by measuring the amount of ATP present as measured by CelltiterGlo.

MLKL (full length) = MLKL (full length) (Homo sapiens (Human), UniProt Q8NB16); experiment: KINOMEscan binding assay, MLKL (full length); conditions: Table 36
Chain of MLKL (full length) (Q8NB16 whole entry): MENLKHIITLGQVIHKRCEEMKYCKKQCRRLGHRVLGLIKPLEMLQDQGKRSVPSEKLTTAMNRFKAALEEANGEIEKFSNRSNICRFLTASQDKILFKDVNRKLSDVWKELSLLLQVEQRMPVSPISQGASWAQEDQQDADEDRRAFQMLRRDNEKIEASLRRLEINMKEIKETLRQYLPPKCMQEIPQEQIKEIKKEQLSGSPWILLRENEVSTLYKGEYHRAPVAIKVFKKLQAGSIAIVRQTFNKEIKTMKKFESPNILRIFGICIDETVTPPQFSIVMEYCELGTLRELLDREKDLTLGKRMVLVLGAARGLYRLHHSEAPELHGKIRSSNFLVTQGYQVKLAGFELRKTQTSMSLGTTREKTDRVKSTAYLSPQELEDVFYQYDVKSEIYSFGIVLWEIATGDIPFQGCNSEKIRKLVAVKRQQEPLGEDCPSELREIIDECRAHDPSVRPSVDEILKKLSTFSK
Description: Kinase assays. For most assays, kinase-tagged T7 phage strains were grown in parallel in 24-well blocks in an E. coli host derived from the BL21 strain. E. coli were grown to log-phase and infected with T7 phage from a frozen stock (multiplicity of infection=0.4) and incubated with shaking at 32° C. until lysis (90-150 minutes).
The Hill Slope was set to −1.

U937 cells = experiment: Counter screen: cell viability without TSQ cocktail (off-target effect); set-up: species or system human; conditions: Homo sapiens, U-937, Table 38, read-out: Off-target effect (IC50 cell-based assay)
Description: Counter screen: In parallel, all compounds were tested for their ability to affect cell viability. The same U937 cells were treated with compound in DMSO without the TSQ cocktail. This counter screen enabled evaluation of off-target effects. In this case, cell viability was measured by CelltiterGlo.

| Kd (MLKL (full length)) [µM] | SMILES | IC50 [1] [µM] | IC50 (U937 cells) [µM] |
| --- | --- | --- | --- |
| 0.01 to 1 | Cc1ncsc1-c1ccc(CNC(=O)[C@@H]2C[C@@H](O)CN2C(=O)[C@@H](NC(=O)CCCCOC(=O)c2ccc(Nc3[nH]nc(-c4ccc(NS(=O)(=O)C(F)F)c(OCc5ccc(F)cc5)c4)c3C(N)=O)nc2)C(C)(C)C)cc1 [Compound 1055, 4-{[(2S)-1-[(2S,4R)-4-hydroxy-2-({[4-(4-methyl-1,3-thiazol-5-yl)phenyl]methyl}carbamoyl)pyrrolidin-1-yl]-3,3-dimethyl-1-oxobutan-2-yl]carbamoyl}butyl 6-({4-carbamoyl-3-[4-(difluoromethanesulfonamido)-3-[(4-fluorophenyl)methoxy]phenyl]-1H-pyrazol-5-yl}amino)pyridine-3-carboxylate] | < 1 | > 10 |
| < 0.01 | Cc1ncsc1-c1ccc(CNC(=O)[C@@H]2C[C@@H](O)CN2C(=O)[C@@H](NC(=O)COCCn2ccc(Nc3[nH]nc(-c4ccc(NS(=O)(=O)C(F)F)c(O[C@@H](C)c5ccc(F)cc5)c4)c3C(N)=O)n2)C(C)(C)C)cc1 [Compound 1036, 3-[4-(difluoromethanesulfonamido)-3-[(1S)-1-(4-fluorophenyl)ethoxy]phenyl]-5-({1-[2-({[(2S)-1-[(2S,4R)-4-hydroxy-2-({[4-(4-methyl-1,3-thiazol-5-yl)phenyl]methyl}carbamoyl)pyrrolidin-1-yl]-3,3-dimethyl-1-oxobutan-2-yl]carbamoyl}methoxy)ethyl]-1H-pyrazol-3-yl}amino)-1H-pyrazole-4-carboxamide] | 1 to 10 | > 10 |
| < 0.01 | CCS(=O)(=O)Nc1ccc(-c2n[nH]c(Nc3ccnc(OCCOCCOCCOCCOCCOCC(=O)N[C@H](C(=O)N4C[C@H](O)C[C@H]4C(=O)NCc4ccc(-c5scnc5C)cc4)C(C)(C)C)c3)c2C(N)=O)cc1 [Compound 1008, 3-(4-ethanesulfonamidophenyl)-5-({2-[(1-{[(2S)-1-[(2S,4R)-4-hydroxy-2-({[4-(4-methyl-1,3-thiazol-5-yl)phenyl]methyl}carbamoyl)pyrrolidin-1-yl]-3,3-dimethyl-1-oxobutan-2-yl]carbamoyl}-2,5,8,11,14-pentaoxahexadecan-16-yl)oxy]pyridin-4-yl}amino)-1H-pyrazole-4-carboxamide] | > 10 | > 10 |
| < 0.01 | CCS(=O)(=O)Nc1ccc(-c2n[nH]c(Nc3ccnc(OCCOCCOCCOCCOCCOCCOCC(=O)N[C@H](C(=O)N4C[C@H](O)C[C@H]4C(=O)NCc4ccc(-c5scnc5C)cc4)C(C)(C)C)c3)c2C(N)=O)cc1 [Compound 1009, 3-(4-ethanesulfonamidophenyl)-5-({2-[(1-{[(2S)-1-[(2S,4R)-4-hydroxy-2-({[4-(4-methyl-1,3-thiazol-5-yl)phenyl]methyl}carbamoyl)pyrrolidin-1-yl]-3,3-dimethyl-1-oxobutan-2-yl]carbamoyl}-2,5,8,11,14,17-hexaoxanonadecan-19-yl)oxy]pyridin-4-yl}amino)-1H-pyrazole-4-carboxamide] | > 10 | > 10 |

The next lines start with the compound.

| SMILES | Kd (MLKL (full length)) [µM] | IC50 [1] [µM] | IC50 (U937 cells) [µM] |
| --- | --- | --- | --- |
| Cc1ncsc1-c1ccc(CNC(=O)[C@@H]2C[C@@H](O)CN2C(=O)[C@@H](NC(=O)CCCCOC(=O)c2ccc(Nc3[nH]nc(-c4ccc(NS(=O)(=O)C(F)F)cc4)c3C(N)=O)nc2)C(C)(C)C)cc1 [Compound 1049, 4-{[(2S)-1-[(2S,4R)-4-hydroxy-2-({[4-(4-methyl-1,3-thiazol-5-yl)phenyl]methyl}carbamoyl)pyrrolidine-1-yl]-3,3-dimethyl-1-oxobutan-2-yl]carbamoyl}butyl 6-({4-carbamoyl-3-[4-(difluoromethanesulfonamido)phenyl]-1H-pyrazol-5-yl}amino)pyridine-3-carboxylate] | < 0.01 | 1 to 10 | > 10 |
| Cc1ncsc1-c1ccc(CNC(=O)[C@@H]2C[C@@H](O)CN2C(=O)[C@@H](NC(=O)COCCOc2cc(Nc3[nH]nc(-c4ccc(NS(=O)(=O)CC(F)(F)F)cc4)c3C(N)=O)ccn2)C(C)(C)C)cc1 [Compound 1011, 5-({2-[2-({[(2S)-1-[(2S,4R)-4-hydroxy-2-({[4-(4-methyl-1,3-thiazol-5-yl)phenyl]methyl}carbamoyl)pyrrolidin-1-yl]-3,3-dimethyl-1-oxobutan-2-yl]carbamoyl}methoxy)ethoxy]pyridin-4-yl}amino)-3-[4-(2,2,2-trifluoroethanesulfonamido)phenyl]-1H-pyrazole-4-carboxamide] | < 0.01 | > 10 | > 10 |
| Cc1ncsc1-c1ccc(CNC(=O)[C@@H]2C[C@@H](O)CN2C(=O)[C@@H](NC(=O)CCCCC#Cc2ccc(Nc3[nH]nc(-c4ccc(NS(=O)(=O)C(F)F)c(O[C@@H](C)c5ccc(F)cc5)c4)c3C(N)=O)nc2)C(C)(C)C)cc1 [Compound 1047, 3-[4-(difluoromethanesulfonamido)-3-[(1 S)-1-(4-fluorophenyl)ethoxy]phenyl]-5-{[5-(6-{[(2S)-1-[(2S,4R)-4-hydroxy-2-({[4-(4-methyl-1,3-thiazol-5-yl)phenyl]methyl}carbamoyl)pyrrolidin-1-yl]-3,3-dimethyl-1-oxobutan-2-yl]carbamoyl}hex-1-yn-1-yl)pyridin-2-yl]amino}-1H-pyrazole-4-carboxamide] | 0.01 to 1 | < 1 | 1 to 10 |
| CCS(=O)(=O)Nc1ccc(-c2n[nH]c(Nc3ccnc(OCCCCCCCCCCCCCC(=O)N[C@H](C(=O)N4C[C@H](O)C[C@H]4C(=O)NCc4ccc(-c5scnc5C)cc4)C(C)(C)C)c3)c2C(N)=O)cc1 [Compound 1018, 3-(4-ethanesulfonamidophenyl)-5-({2-[(13-{[(2S)-1-[(2S,4R)-4-hydroxy-2-({[4-(4-methyl-1,3-thiazol-5-yl)phenyl]methyl}carbamoyl)pyrrolidin-1-yl]-3,3-dimethyl-1-oxobutan-2-yl]carbamoyl}tridecyl)oxy]pyridin-4-yl}amino)-1H-pyrazole-4-carboxamide] | 0.01 to 1 | > 10 | > 10 |
| CCS(=O)(=O)Nc1ccc(-c2n[nH]c(Nc3ccnc(OCCOCC(=O)N[C@H](C(=O)N4C[C@H](O)C[C@H]4C(=O)NCc4ccc(-c5scnc5C)cc4)C(C)(C)C)c3)c2C(N)=O)cc1 [Compound 1010, 3-(4-ethanesulfonamidophenyl)-5-({2-[2-({[(2S)-1-[(2S,4R)-4-hydroxy-2-({[4-(4-methyl-1,3-thiazol-5-yl)phenyl]methyl}carbamoyl)pyrrolidin-1-yl]-3,3-dimethyl-1-oxobutan-2-yl]carbamoyl}methoxy)ethoxy]pyridin-4-yl}amino)-1H-pyrazole-4-carboxamide] | 0.01 to 1 | > 10 | > 10 |
| CCS(=O)(=O)Nc1ccc(-c2n[nH]c(Nc3ccc(C(=O)OCCCCC(=O)N[C@H](C(=O)N4C[C@H](O)C[C@H]4C(=O)NCc4ccc(-c5scnc5C)cc4)C(C)(C)C)cn3)c2C(N)=O)cc1OCc1ccc(F)cc1 [Compound 1052, 4-{[(2S)-1-[(2S,4R)-4-hydroxy-2-{{[4-(4-methyl-1,3-thiazol-5-yl)phenyl]methyl}carbamoyl)pyrrolidin-1-yl]-3,3-dimethyl-1-oxobutan-2-yl]carbamoyl}butyl 6-[(4-carbamoyl-3-{4-ethanesulfonamido-3-[(4-fluorophenyl)methoxy]phenyl}-1H-pyrazol-5-yl)amino]pyridine-3-carboxylate] | 1 to 30 | > 10 | > 10 |
